Measurements as given in patent publication US7223777B2, “Compounds for the management of aging-related and diabetic vascular complications, process for their preparation, therapeutic and cosmetic uses thereof” (Torrent Pharmaceuticals Ltd., priority 2001, dated 2007).

How the values were obtained:
AGE-BSA = molecular target: T1, AGE-BSA (Bos taurus, UniProt P02769); experiment: In-vitro screening for AGE-breaking activity (AGE-BSA incubated with compound; ELISA / gel permeation chromatography); format: biochemical, bovine; settings: 37° C., 24 hours
T1 construct: Bovine serum albumin (fraction V) (BSA); from tissue; host or cells: bovine serum (fraction V); own knowledge: fraction V is the albumin fraction of plasma/serum
T1 sequence (P02769 25-607): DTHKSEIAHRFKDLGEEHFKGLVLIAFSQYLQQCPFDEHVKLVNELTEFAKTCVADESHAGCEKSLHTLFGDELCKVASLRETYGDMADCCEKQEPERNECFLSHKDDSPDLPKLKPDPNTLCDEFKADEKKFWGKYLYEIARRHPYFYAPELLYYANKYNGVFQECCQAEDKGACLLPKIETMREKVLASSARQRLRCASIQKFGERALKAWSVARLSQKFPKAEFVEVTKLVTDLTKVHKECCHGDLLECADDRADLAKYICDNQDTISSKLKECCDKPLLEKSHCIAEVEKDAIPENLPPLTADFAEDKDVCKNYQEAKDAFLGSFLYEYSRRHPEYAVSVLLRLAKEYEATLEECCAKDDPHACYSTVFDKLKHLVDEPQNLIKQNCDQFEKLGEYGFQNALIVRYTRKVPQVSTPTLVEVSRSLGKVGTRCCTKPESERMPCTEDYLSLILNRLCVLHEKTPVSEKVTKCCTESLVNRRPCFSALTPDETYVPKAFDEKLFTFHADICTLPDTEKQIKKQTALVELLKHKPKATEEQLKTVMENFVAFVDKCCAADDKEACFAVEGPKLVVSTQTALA
Method: Fluorescence was used as the criteria to monitor the increased AGE formation.
160 mg/ml of protein, bovine serum albumin, BSA and 1.6M glucose sugar were dissolved in phosphate buffered saline, PBS. Sodium azide was added at 0.02% concentration as a preservative. The solution was filtered asceptically through a […] filter and kept for aging at 37° C. for 16 weeks. After 16 weeks the solution was dialyzed against PBS, aliquoted and stored at −20° C.
To determine the AGE breaking activity, 10 μg/ml of the 16 weeks AGE-BSA was incubated with different concentrations of the test compounds at 37° C. for 24 hours and AGE breaking activity of the test compounds by ELISA was determined.
• 1. Different concentrations of 16 weeks AGE-BSA were coated on a microtiter plate as standard. Each concentration is coated in triplicates. • 2. The test samples were coated on microtiter plate at a concentration of 5 ng. to 20 ng per well in triplicates. • 3. The plate was incubated at 37° C. for one hour. • 4. After incubation the plate was washed with PBST (PBS with 0.05% Tween 20). • 5. Blocking with 5% skimmed milk in PBS at 37° C. for one hour was done. • 6. The plate was washed with PBST. • 7. Primary antibody against AGE-BSA was added and the plate is incubated at 37° C. for one hour. • 8. The plate was washed with PBST. • 9. Secondary antibody anti rabbit HRPO (Horse-Radish Per Oxidase) conjugate was added and the plate is incubated at 37° C. for one hour. • 10. The plate was washed with PBST. • 11. Colour development with OPD (orthophenylenediamine dihydrochloride) and hydrogen peroxide was done. • 12. OD (optical density) at (450 nm reading –620 nm reading) was measured after incubation at 37° C. for 15 minutes with Microplate ELISA Reader.
The breaker activity of the compounds were determined by the following formula:
[formula] OD450-620Control=Absorbance of 20 ng AGE-BSA after incubation at 37° C. for 24 hours without test compound. OD450-620Test=Absorbance of 20 ng AGE-BSA after incubation at 37° C. for 24 hours with required concentration of test compound.
Gel Permeation Chromatography based method was used to determine AGE breaking activities of the compounds.
Separation by Gel Permeation Chromatography (GPC) depends on differences in the size, more precisely the hydrodynamic volume, of the proteins in a sample. […] The pores of a column particle are differentially accessible to smaller particles, depending on their size. This volume of the column is called (V1). The total accessible volume (Vt) is the sum of the volume outside the particles (V0) and the volume accessible inside the particles (V1): Vt=V0+Vi Therefore, in a typical Gel Permeation Chromatography (GPC) run, high molecular weight molecules elute at a lower retention time whereas lower molecular weight molecules are retained for longer time. For the purpose of quantification, the area under the curve for the respective molecule is recorded. The same principle has been applied in the in vitro screening of the molecules of instant invention. Highly cross-linked Advanced Glycosylated Endproducts (AGE) were prepared in vitro by incubating Bovine Serum Albumin (BSA) with glucose for a period of 16 weeks. […] The reduction in the area of AGE-BSA incubated in the presence of AGE breaker as compared to that of control AGE BSA (incubated in absence of AGE breaker) gives an estimate of the AGE breaker activity of the drug. In order to check the non-specific activity of the molecule, a similar experiment was repeated with BSA as well. Methodology:
A known concentration of 16-week AGE-BSA was incubated with and without a predetermined concentration of the drug at 37° C. for 24 hours in clean transparent glass test tubes. The solution without drug served as the control and the solution containing the drug was treated as the test sample.
Gel permeation chromatography was performed on equal volumes of control AGE-BSA preparation and solution of AGE-BSA treated with drug. […]

[1] = test system: Maillard reaction in-vitro (BSA, ribose); experiment: Test for AGE inhibiting activity (Maillard reaction in-vitro, BSA + ribose, fluorescence); format: biochemical, bovine; settings: 37° C., 7 days
Method: The following method was used to determine the inhibitory effect of the test compounds on Maillard reaction in-vitro. This method is adopted from U.S. Pat. No. 5,514,676 and European Patent No. 0 339 496 A2.
A solution of Bovine Serum Albumin (BSA), ribose and test compound was prepared in Phosphate Buffer Saline (PBS, pH 7.4) so as to have final concentration of BSA and ribose at 10 mg/ml and 500 mM respectively. Addition of compound was done in aseptic conditions. Sodium azide (0.02%) was also added in this solution in order to prevent microbial growth. A separate tube containing BSA, ribose and sodium azide in the same concentration and buffer as above, but without any test compound, was also incubated as positive control. After incubation at 37° C. for 7 days, 40 micro liter sample from each tube was removed and diluted with PBS to have final concentration of BSA at 1 mg/ml. The fluorescence of all the samples was measured at Excitation Maximum of […] and the Emission Maximum of […] using f-MAX Fluorimeter (Molecular Device, USA). In order to study the effect of test compound on fluorescence, freshly prepared compound solution was mixed with previously incubated positive control (i.e. BSA+ribose), so as to achieve same concentration of all the components as that of test samples.
The percent inhibition of test compound was measured as follows:
[formula] Where F3=Fluorescence of BSA+ribose+compound, F4 is fluorescence of incubated (BSA+ribose)+freshly added test compound.

[2] = Free radical scavenging activity on ABTS radical cation; format: biochemical
Method: This method measures the relative ability of free radical scavenging substances to scavenge the ABTS.^+ i.e. 2,2-Azino-bis-(3-ethyl benzo thiazoline-6-sulfonate) radical cation as compared to a standard amount of standard or free radical scavengers antioxidants. Incubation of ABTS with Peroxidase (metmyoglobin) and hydrogen peroxide results in the production of radical cation ABTS.^+. This species is blue-green in colour and can be detected at 730 nm. Antioxidants or free radical scavengers in the added sample that causes suppression of the color to a degree that is proportional to their concentration.
Preparation of Buffer Solutions: • a. Phosphate Citrate Buffer (pH 5.0): 48.5 ml of 0.1M citric acid with sufficient 0.2M disodium hydrogen phosphate to produce 100 ml. • b. Phosphate Buffer Saline (PBS): Dissolve 40.0 g of NaCl, 1.0 g of KCl, 1.0 g of KH2PO4 and 3.05 g of Na2HPO4 in 1 liter milli-Q water. Dilute 200 ml of above solution to 1 liter with milli-Q water (pH 7.4–7.6).
Preparation of ABTS Stock Solution (2 mM): • 1 tablet (10 mg) was dissolved in phosphate citrate buffer (pH 5.0) to give a 2 mM solution.
Preparation of Horse Radish Peroxidase Working Solution: • 0.1 mg was dissolved in 10 ml of phosphate buffer saline, 1 ml of this solution was diluted to 100 ml with PBS.
Preparation of Hydrogen Peroxide (1.08 mM) Solution: • 12 μl of Hydrogen Peroxide (30% w/v) was diluted to 100 ml with PBS.
Preparation of Drug Solutions: • 0.1 mM of stock solution of the drug was prepared which was serially diluted in PBS to get 0.05 mM, 0.025 mM and 0.0125 mM solutions.
Preparation of ABTS Radical Stock Solution: • To 2 ml of ABTS stock solution, 1 ml of horseradish Peroxidase working solution was added. • As soon as 2 ml of Hydrogen peroxide solution was added to the above solution, blue-green colour of the ABTS radicals appeared. This solution was incubated at 30° C. for 30 min in order to ensure the completion reaction. Make up the volume to 10 ml with PBS.
Preparation of Control Solution: • 900 μl of ABTS radical stock solution were added to an eppendorf tube. To it were added 100 μl of PBS solution.
Preparation of Test Solution: • 900 μl of ABTS radical stock solutions were added to different eppendorf tubes. To it were added 100 μl of various concentrations of drug solution.
Measurement of Absorbance (O.D): • The absorbance of control and test samples was recorded immediately at 730 nm taking PBS as blank.
Calculation: • The percent antioxidant activity was calculated according to the formula: % Antioxidant activity=100−[O.D of test sample/O.D of control×100]

Row | % Breakage (AGE-BSA; 10 mM compound) [%] | % Breakage (AGE-BSA; 5 mM compound) [%] | Compound | % Inhibition (Day 7) ([1]; 10 mM compound) [%] | Relative Free Radical Scavenging Activity (%) on ABTS ([2]; 12.5 μM) [%] | Relative Free Radical Scavenging Activity (%) on ABTS ([2]; 25.0 μM) [%] | Relative Free Radical Scavenging Activity (%) on ABTS ([2]; 50.0 μM) [%] | Relative Free Radical Scavenging Activity (%) on ABTS ([2]; 100.0 μM) [%] | % Inhibition (Day 7) ([1]; 2.5 mM compound) [%] | % Inhibition (Day 7) ([1]; 1.25 mM compound) [%] | % Inhibition (Day 7) ([1]; 5 mM compound) [%]
1 | 66.66 | – | 1-(2-Thien-2′-yl-2-oxoethyl)-3-[(1-cyclohexyl-3-(3,5-dimethylpyrazol-1-yl)methyl)pyrazol-5-yl]pyridinium chloride [Compound 35] | 73.8 | 28.27 | 39.78 | 58.34 | 74.36 | – | – | –
2 | – | 76.84 | O=C(C[n+]1cccc(-c2cc(Cc3ccccc3)nn2-c2ccccc2)c1)c1cccs1.[Cl-] [Compound 11, 1-(2-Thien-2′-yl-2-oxoethyl)-3-[(1-phenyl-3-phenylmethyl)pyrazol-5-yl]-pyridinium chloride] | – | 26.78 | 45.74 | 70.61 | 86.46 | – | 32.9 | –
3 | 81.05 | – | Cc1cc(C)n(Cc2cc(-c3ccc[n+](CC(=O)c4cccs4)c3)n(-c3ccccc3)n2)n1.[Cl-] [Compound 13] | 57 | 23.58 | 41.78 | 64.01 | 82.54 | – | – | –
4 | 52.27 | – | Cc1cc(C)n(Cc2cc(-c3ccc[n+](CC(=O)c4ccccc4)c3)[nH]n2)n1.[Cl-] [Compound 17, 1-(2-Phenyl-2-oxoethyl)-3-[(3-(3,5-dimethylpyrazol-1-yl)methyl)pyrazol-5-yl]-pyridinium chloride] | – | 28.34 | 54.43 | 83.56 | 94.81 | 57.43 | – | –
5 | – | 52.97 | Cc1cc(C)n(Cc2cc(-c3ccc[n+](CC(=O)c4ccc(C)s4)c3)[nH]n2)n1.[Cl-] [Compound 18, 1-(2-(5-Methyl-2-thienyl)-2-oxoethyl)-3-[(3,-(3,5-dimethylpyrazol-1-yl)methyl)pyrazol-5-yl]pyridinium chloride] | – | 28.65 | 53.8 | 84.41 | 95.32 | – | – | 79

Continued, compound first:

Row | Compound | % Breakage (AGE-BSA; 10 mM compound) [%] | % Breakage (AGE-BSA; 5 mM compound) [%] | % Inhibition (Day 7) ([1]; 10 mM compound) [%] | Relative Free Radical Scavenging Activity (%) on ABTS ([2]; 12.5 μM) [%] | Relative Free Radical Scavenging Activity (%) on ABTS ([2]; 25.0 μM) [%] | Relative Free Radical Scavenging Activity (%) on ABTS ([2]; 50.0 μM) [%] | Relative Free Radical Scavenging Activity (%) on ABTS ([2]; 100.0 μM) [%] | % Inhibition (Day 7) ([1]; 2.5 mM compound) [%] | % Inhibition (Day 7) ([1]; 1.25 mM compound) [%] | % Inhibition (Day 7) ([1]; 5 mM compound) [%]
6 | Cc1cc(C)n(Cc2cc(-c3ccc[n+](CC(=O)c4cccs4)c3)n(-c3ccccn3)n2)n1.[Br-] [Compound 6, 1-(2-Thien-2′-yl-2-oxoethyl)-3-[3{(3,5-dimethylpyrazol-1-yl)methyl-1-(2-pyridyl)}pyrazol-5-yl]pyridinium bromide] | – | – | 66 | 21.99 | 40.56 | 61.68 | 81.04 | – | – | –
7 | O=C(C[n+]1cccc(-c2cc(-c3ccc[n+](CC(=O)c4cccs4)c3)[nH]n2)c1)c1cccs1.[Br-].[Br-] [Compound 10, 3,5-Bis-[1-(2-thien-2′-yl-2-oxoethyl)-pyridinium-3-yl]-pyrazole dibromide] | – | – | – | 41.01 | 72.97 | 85.75 | 87.04 | 75 | – | –
8 | O=C(C[n+]1cccc(-c2cc(COc3ccccc3)nn2-c2ccccc2)c1)c1cccs1.[Cl-] [Compound 29, 1-(2-Thien-2′-yl-2-oxoethyl)-3-[(1-phenyl-3-phenoxymethyl)pyrazol-5-yl]pyridinium chloride] | – | – | – | 31.82 | 46.84 | 58.84 | 55.22 | – | – | 55.22
